Legend:
[1] = [Ca2+] antagonistic activity was measured with isolated depolarized guinea pig taenia cecum.; assay type: functional, tissue-based, Cavia porcellus, Caecum
[2] = Displacement of [3H]semotiadil from L-type calcium channel of rabbit skeletal muscle; assay type: tissue-based, Oryctolagus cuniculus, Muscle tissue
[3] = [Ca2+] antagonistic activity was measured with isolated depolarized guinea pig taenia cecum.(test 2); assay type: functional, tissue-based, Cavia porcellus, Caecum
[4] = [Ca2+] antagonistic activity was measured with isolated depolarized guinea pig taenia cecum.(test 1); assay type: functional, tissue-based, Cavia porcellus, Caecum

SMILES	IC50 [1]	Ki [2]	IC50 [3]	IC50 [4]
COc1ccc(OCCCN(C)CCOc2ccc3c(c2)OCO3)c([C@H]2Sc3ccccc3N(CCN=[N+]=[N-])C2=O)c1	275 nM	–	–	–
COc1ccc(OCCCN(C)CCOc2cccc(N=[N+]=[N-])c2)c([C@H]2Sc3ccccc3N(C)C2=O)c1	654 nM	2670 nM	–	–
COc1ccc(OCCCN(C)CCOc2ccc3c(c2)OCO3)c([C@H]2Sc3ccccc3N(CCCCN=[N+]=[N-])C2=O)c1	537 nM	–	–	–
COc1ccc(OCCCN(C)CCOc2cccc(N=[N+]=[N-])c2)c(C2Sc3ccccc3N(C)C2=O)c1 (centres undefined)	–	–	1380 nM	427 nM
COc1ccc(OCCCN(C)CCOc2ccc3c(c2)OCO3)c([C@H]2Sc3ccccc3N(C)C2=O)c1 [SEMOTIADIL]	–	121 nM	54.5 nM	42.7 nM

— ChEMBL document CHEMBL1129142, “Synthesis of azido derivatives of semotiadil, a novel 1,4-benzothiazine calcium antagonist, for photoaffinity probes of calcium channels” (Bioorg Med Chem Lett, 1996)
